# Measured values: US20140005103A1, “SULFONAMIDE DERIVATIVES AND METHODS OF USE THEREOF FOR IMPROVING THE PHARMACOKINETICS OF A DRUG” (Merck, Sharp & Dohme Corp., priority 2012, published 2014)
# Key:
# CYP1A2 = target: T1, CYP1A2 (Homo sapiens, UniProt P05177); assay: Cocktail CYP assay, phenacetin O-deethylation; type: in vitro ADME; settings: human liver microsomes, 10 μM phenacetin; test concentrations up to 10 μM
# T1 construct: 0.1 mg/mL protein human liver microsomes (BD Gentest); tissue BD Gentest; host or cells: human liver microsomes
# T1 sequence (P05177 1-516): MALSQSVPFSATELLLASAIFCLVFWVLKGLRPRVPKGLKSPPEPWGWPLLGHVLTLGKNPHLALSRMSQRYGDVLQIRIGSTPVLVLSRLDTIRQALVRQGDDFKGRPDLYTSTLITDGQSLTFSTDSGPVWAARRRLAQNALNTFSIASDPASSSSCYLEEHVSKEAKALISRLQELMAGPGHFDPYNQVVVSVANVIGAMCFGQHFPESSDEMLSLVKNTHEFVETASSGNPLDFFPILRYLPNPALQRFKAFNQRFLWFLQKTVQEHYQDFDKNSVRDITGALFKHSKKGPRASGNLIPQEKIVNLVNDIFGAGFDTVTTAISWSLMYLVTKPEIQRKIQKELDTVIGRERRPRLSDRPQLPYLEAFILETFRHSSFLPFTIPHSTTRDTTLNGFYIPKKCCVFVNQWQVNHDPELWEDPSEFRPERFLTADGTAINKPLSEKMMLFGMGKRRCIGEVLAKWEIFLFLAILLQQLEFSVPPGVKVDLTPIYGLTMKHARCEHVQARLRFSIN
# Method: (§1) Determination of IC50 in a Cocktail Assay for CYPs 1A2, 2C9, 2C19, 2D6 and 3A4
# (§2) This assay was performed in a standard 96-well plate design. IC50 values were calculated from the percent inhibition observed for each test compound at 6 concentrations (for example, 0.0032, 0.016, 0.08, 0.4, 2 and 10 μM). The incubation substrate mix contains 10 μM phenacetin (1A2), 5 μM diclofenac (2C9), 30 μM mephenyloin (2C19), 5 μM dextromethorphan (2D6) and 2 μM midazolam (3A4), 0.1 mg/mL protein human liver microsomes (BD Gentest), 1 mM NAPDH, 3.3 mM MgCl2 and 100 mM potassium phosphate buffer (pH 7.4). The production of the metabolite of each probe substrate was determined after incubation for 10 min at 37° C. Quantitation of the metabolite peak area ratio against an internal standard (tolbutamide) was determined by LC/MS/MS analysis following acetonitrile treatment of the incubations.
# (§3) Samples were analyzed in the MRM mode with a SCIEX API-4000 mass spectrometer (Applied Biosystems, Foster City, Calif.), with a Shimadzu LC-20 AD pump (Shimadzu corporation, Kyoto, JP) and a CTC PAL autosampler (Agilent Technologies, Switzerland). A Phenomenex, Luna, […], 100 A, 2.00×30 mm HPLC column was used for the separation. The mobile phases were: (A) 0.1% formic acid in water and (B) 0.1% formic acid in acetonitrile. The binary gradient was as follows.
# (§4) The peak area ratio of the analyte to the internal standard was used to quantify the metabolite. The values of peak area ratios in the presence of test compound were compared to those of maximum or minimum controls and were expressed as % inhibition by interpolating between the maximum and minimum peak area ratios. Incubations with no inhibitor were defined as the maxima.
# (§5) The following equation was used to calculate the % inhibition:
# (§6) [1−[(X−Low control)/(High control−Low control)]]*100
# (§7) For the IC50 calculation, SigmaPlot was used to plot the mean % inhibition versus the test compound concentrations and for non-linear regression analysis of the data. Depending on the range of data points defining the inhibition curve, the data may have been fit to the 4-parameter logistic equation.
# CYP2C19 = target: T2, CYP2C19 (Homo sapiens, UniProt P33261); assay: Cocktail CYP assay, mephenytoin 4'-hydroxylation; type: in vitro ADME; settings: human liver microsomes, 30 μM mephenytoin; test concentrations up to 10 μM
# T2 construct: 0.1 mg/mL protein human liver microsomes (BD Gentest); tissue BD Gentest; host or cells: human liver microsomes
# T2 sequence (P33261 whole entry): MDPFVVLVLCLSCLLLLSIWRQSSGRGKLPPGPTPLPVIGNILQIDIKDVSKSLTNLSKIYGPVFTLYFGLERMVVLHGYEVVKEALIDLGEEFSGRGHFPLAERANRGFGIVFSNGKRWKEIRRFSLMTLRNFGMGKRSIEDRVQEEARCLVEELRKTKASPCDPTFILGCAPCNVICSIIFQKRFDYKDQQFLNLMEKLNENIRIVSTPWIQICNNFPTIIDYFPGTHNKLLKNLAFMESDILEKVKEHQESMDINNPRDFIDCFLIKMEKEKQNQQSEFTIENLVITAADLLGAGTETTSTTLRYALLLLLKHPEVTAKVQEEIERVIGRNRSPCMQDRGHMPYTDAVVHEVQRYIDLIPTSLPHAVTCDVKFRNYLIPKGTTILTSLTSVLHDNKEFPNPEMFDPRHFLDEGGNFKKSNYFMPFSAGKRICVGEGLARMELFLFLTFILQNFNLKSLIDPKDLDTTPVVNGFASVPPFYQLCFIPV
# Method: as §1, §2, §3, §4, §5, §6, §7
# CYP2D6 = target: T3, CYP2D6 (Homo sapiens, UniProt P10635); assay: Cocktail CYP assay, dextromethorphan O-demethylation; type: in vitro ADME; settings: human liver microsomes, 5 μM dextromethorphan; test concentrations up to 10 μM
# T3 construct: 0.1 mg/mL protein human liver microsomes (BD Gentest); tissue BD Gentest; host or cells: human liver microsomes
# T3 sequence (P10635 whole entry): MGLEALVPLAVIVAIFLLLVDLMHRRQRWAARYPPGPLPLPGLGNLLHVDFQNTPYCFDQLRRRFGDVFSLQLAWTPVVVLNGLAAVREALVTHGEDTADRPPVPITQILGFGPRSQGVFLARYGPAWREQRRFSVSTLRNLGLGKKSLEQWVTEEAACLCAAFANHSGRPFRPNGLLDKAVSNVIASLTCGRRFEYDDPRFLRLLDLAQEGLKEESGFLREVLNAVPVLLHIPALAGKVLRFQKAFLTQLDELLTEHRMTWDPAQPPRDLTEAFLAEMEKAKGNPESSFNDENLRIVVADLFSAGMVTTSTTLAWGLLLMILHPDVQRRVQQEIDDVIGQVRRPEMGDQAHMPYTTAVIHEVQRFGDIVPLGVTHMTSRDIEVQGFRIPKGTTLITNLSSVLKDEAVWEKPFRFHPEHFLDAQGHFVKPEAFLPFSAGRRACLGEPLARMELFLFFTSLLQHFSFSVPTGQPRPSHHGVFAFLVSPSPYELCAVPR
# Method: as §1, §2, §3, §4, §5, §6, §7
# human CYP11B2 = target: T4, human CYP11B2 (Homo sapiens, UniProt P19099); assay: IC50 vs CYP11B2 by aldosterone synthesis in V79 cells; type: cell-based; settings: V79 cells expressing human CYP11B2, 750 nM DOC, aldosterone HTRF; test concentrations 0.5-10000 nM
# T4 construct: expressed in transfected cells
# T4 sequence (P19099 25-503): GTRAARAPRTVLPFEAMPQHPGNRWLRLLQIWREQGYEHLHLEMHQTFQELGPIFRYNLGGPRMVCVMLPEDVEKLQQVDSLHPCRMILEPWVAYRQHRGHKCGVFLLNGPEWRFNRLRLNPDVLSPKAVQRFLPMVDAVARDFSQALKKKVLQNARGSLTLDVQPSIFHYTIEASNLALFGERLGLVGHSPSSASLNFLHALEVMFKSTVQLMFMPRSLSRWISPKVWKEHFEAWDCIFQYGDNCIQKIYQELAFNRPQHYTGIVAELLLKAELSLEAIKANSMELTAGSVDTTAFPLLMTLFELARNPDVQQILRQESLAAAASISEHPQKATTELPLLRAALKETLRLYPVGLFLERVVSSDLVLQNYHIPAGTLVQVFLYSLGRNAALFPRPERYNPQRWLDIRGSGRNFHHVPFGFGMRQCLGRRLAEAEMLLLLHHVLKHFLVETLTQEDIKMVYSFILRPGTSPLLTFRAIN
# Method: Determination of IC50 vs CYP11B1/CYP11B2 by Measurement of Cortisol/Aldosterone Synthesis
# This assay was performed in a standard 384-well plate design using cultured V79 cells stably expressing human CYP11B1 or human CYP11B2. Test compounds at 10 concentrations (for example, 10000, 3333.3, 1111.1, 370.4, 123.5, 41.2, 13.7, 4.6, 1.5 and 0.5 nM) were added in 384-well plate after the cell-seeding procedure. The incubation substrate contains 1500 nM RSS for CYP11B1 assay/750 nM DOC for CYP11B2 assay. The
# Cortisol/Aldosterone production of cell culture supernatant was determined by Cortisol/Aldosterone HTRF kit after for about 15 hours incubation at RT (protect from light). IC50 values were calculated from the percent inhibition observed for each test compound at 10 concentrations.
# The assay plate was read using Envision (Perkin Elmer, Waltham, Mass.) at 665 nm and 590 nm (using Filter Barcode of 217#, 205#; Mirror Barcode of 446#).
# Data are analyzed using Assay Data Analyzer. All ratio data (665 nm/590 nm) are back calculated according to the standard curve, resulting in Cortisol/Aldosterone concentrations. IC50 values are reported as the Inflection Point (IP) of a four parameter fit of the titration data.
# as §5
# % Activity=100×{1−(Sample_back calculated Cortisol/Aldosterone concentration−LC_back calculated Cortisol/Aldosterone concentration)/(HC_back calculated Cortisol/Aldosterone concentration−LC_back calculated Cortisol/Aldosterone concentration)}
Structure (SMILES),IC50 (CYP1A2) [µM],IC50 (CYP2C19) [µM],IC50 (CYP2D6) [µM],IC50 (human CYP11B2) [µM]
C[C@H](c1ccc(F)cc1)n1cncc1CN1CCN(S(=O)(=O)c2cncc(N3CCNCC3)c2)CC1 [Compound 29],> 10,> 10,> 10,4.37
C[C@H](c1ccc(F)cc1)n1cncc1CN1CCN(S(=O)(=O)c2cnc(N3CCNCC3)cn2)CC1 [Compound 30],> 10,> 10,4.92,2.9
Cc1ccc(C2(n3cncc3CN3CCN(S(=O)(=O)c4cnc(N5CCN(C)CC5)s4)CC3)CC2)nc1 [Compound 31],> 10,> 10,> 10,> 10
CN1CCN(c2ncc(S(=O)(=O)N3CCN(Cc4cncn4CCOc4ccc(Cl)cc4)CC3)s2)CC1 [Compound 32],> 10,3.44,1.3,1.03

# Other lines, results leading:
IC50 (CYP1A2) [µM],IC50 (CYP2C19) [µM],IC50 (CYP2D6) [µM],IC50 (human CYP11B2) [µM],Structure (SMILES)
> 10,7.51,4.8,1.61,CN1CCN(c2ncc(S(=O)(=O)N3CCN(Cc4cncn4CCOc4ccc(F)cn4)CC3)s2)CC1 [Compound 33]
5.81,> 10,> 10,0.193,CC(c1cncn1[C@H](C)c1ccc(F)cc1)N1CCN(S(=O)(=O)c2cnc(N3CCN4C[C@H](O)C[C@H]4C3)s2)CC1 (stereo partly drawn) [Compound 37]
3.73,2.65,2.18,2.47,C[C@H](c1ccc(F)cc1)n1cncc1C1C(=O)OCC2CN(S(=O)(=O)c3cnc(Nc4ccc(C(F)(F)F)cn4)s3)CCN21 (stereo partly drawn) [Compound 39]
> 10,3.05,2.89,3.9,C[C@H](c1ccc(F)cc1)n1cncc1C1COCC2CN(S(=O)(=O)c3cnc(Nc4ccccn4)s3)CCN21 (stereo partly drawn) [Compound 40]
> 10,> 10,> 10,> 10,C[C@H](c1ccc(F)cc1)n1cnnc1CN1CCN(S(=O)(=O)c2cnc(N3CCN4C[C@H](O)C[C@H]4C3)s2)CC1 [Compound 42]
